Biological target: DNA (cytosine-5)-methyltransferase 1 (Homo sapiens) (UniProt P26358)
Assay: Inhibition of DNMT1 assessed as drug level causing inhibition by SPA

DNA (cytosine-5)-methyltransferase 1 (Homo sapiens), sequence (P26358 whole entry): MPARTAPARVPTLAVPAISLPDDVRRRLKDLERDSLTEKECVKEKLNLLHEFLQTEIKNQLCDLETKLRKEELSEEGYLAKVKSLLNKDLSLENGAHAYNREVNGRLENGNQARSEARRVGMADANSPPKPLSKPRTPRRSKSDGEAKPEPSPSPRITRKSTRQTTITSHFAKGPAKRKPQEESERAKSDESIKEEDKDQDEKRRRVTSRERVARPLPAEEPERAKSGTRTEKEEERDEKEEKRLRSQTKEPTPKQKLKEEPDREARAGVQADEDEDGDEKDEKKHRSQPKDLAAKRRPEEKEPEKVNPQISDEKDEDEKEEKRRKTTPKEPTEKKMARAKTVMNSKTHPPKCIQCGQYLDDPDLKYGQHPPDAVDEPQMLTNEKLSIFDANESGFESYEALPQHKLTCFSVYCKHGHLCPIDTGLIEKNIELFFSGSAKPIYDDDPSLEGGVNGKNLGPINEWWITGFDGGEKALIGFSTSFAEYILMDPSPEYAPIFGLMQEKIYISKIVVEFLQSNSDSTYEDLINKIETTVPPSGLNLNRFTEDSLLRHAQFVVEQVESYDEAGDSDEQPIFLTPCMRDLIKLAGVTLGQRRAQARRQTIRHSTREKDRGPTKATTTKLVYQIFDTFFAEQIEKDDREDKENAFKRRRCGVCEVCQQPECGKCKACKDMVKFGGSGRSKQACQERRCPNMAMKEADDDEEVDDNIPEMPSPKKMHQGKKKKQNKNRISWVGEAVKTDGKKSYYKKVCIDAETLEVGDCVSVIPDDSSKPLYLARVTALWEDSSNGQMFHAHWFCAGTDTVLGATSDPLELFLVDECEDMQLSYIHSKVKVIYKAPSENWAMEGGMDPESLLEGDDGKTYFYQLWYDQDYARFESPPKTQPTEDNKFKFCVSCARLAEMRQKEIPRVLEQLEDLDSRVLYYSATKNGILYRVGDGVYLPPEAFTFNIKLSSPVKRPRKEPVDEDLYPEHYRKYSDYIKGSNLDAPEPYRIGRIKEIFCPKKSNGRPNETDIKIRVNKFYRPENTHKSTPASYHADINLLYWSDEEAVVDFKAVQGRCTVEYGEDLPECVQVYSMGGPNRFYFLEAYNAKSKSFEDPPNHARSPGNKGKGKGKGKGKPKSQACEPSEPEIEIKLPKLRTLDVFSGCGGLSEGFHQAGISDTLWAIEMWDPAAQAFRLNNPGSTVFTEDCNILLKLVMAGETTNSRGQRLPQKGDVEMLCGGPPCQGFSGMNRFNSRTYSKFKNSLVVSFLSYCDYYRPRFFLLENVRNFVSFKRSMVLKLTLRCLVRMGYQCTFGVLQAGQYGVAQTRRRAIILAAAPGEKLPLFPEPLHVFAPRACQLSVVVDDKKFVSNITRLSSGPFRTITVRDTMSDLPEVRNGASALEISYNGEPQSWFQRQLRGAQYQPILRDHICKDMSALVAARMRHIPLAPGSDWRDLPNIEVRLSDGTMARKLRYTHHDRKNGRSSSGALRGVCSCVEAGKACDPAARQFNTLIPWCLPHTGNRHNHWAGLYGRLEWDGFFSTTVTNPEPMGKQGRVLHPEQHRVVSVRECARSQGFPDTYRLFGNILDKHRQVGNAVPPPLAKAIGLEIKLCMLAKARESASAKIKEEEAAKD

| Activity [µM] | Structure (SMILES) |
| --- | --- |
| 1.25 | C=C(Cl)[C@](Cl)(CBr)CC[C@@H](Br)C(C)(C)Cl |
| 55 | C=C(Cl)/C(=C\Br)CCC(Br)C(C)(C)Cl (centres undefined) |
| 21.9 | C=C[C@](Cl)(CBr)CC[C@@H](Br)C(C)(C)Cl |
| 1.65 | C=C(Cl)/C(=C\Br)CCC(Br)=C(C)C |
